# Experiments:
# Human LBAT = target: T1, Human LBAT (Homo sapiens, UniProt Q14973); assay: LBAT (h/m) assay, human LBAT-overexpressing cells, 3H-taurocholic acid uptake; type: cell-based; conditions: read-out: hLBAT IC50
# T1 construct: expressed in transfected cells; cultured under Geneticin selection
# T1 sequence (Q14973 1-349): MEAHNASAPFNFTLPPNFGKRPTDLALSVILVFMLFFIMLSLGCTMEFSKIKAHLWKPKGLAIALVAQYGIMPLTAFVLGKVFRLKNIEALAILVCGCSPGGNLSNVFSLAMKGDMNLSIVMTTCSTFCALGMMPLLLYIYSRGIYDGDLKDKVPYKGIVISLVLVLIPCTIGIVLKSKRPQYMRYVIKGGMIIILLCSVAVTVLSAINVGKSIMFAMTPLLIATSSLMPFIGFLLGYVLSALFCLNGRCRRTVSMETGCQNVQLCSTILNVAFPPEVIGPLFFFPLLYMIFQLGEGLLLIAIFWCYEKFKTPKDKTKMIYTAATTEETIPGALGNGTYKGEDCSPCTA
# Method: LBAT (h/m) Assay Protocol
# 20,000 cells (Human or Mouse LBAT-overexpressing cells) were seeded in 96-wells plate (Corning CLS3809) in 100 μL MEM-alpha medium (Gibco 12571-063) supplemented with 10% FBS (Gibco 10438026) containing Geneticin (Gibco 10131-027) (1 mg/mL) and incubated at 37° C. in 5% CO2 for 24 hours. After incubation, media was decanted from the wells and cells were washed two times with 300 μL of basal MEM-alpha medium (FBS-free). After decanting basal MEM-alpha medium each time, plates were tapped against paper towel to ensure maximum removal of residual media. For human LBAT, incubation mix was prepared by adding test inhibitor dilutions (3-fold serial dilution in DMSO (Sigma D2650), 10 points) in MEM-alpha (without FBS) containing 0.3 μM 3H-taurocholic acid (ARC ART-1368) and 7.5 μM cold taurocholic acid (Sigma T4009) (maintaining 0.2% final DMSO concentration). For mouse LBAT, incubation mix was prepared by adding test inhibitor dilutions (3-fold serial dilution in DMSO, 10 points) in MEM-alpha (without FBS) containing 0.3 μM 3H-taurocholic acid and 25 μM cold taurocholic acid maintaining 0.2% final DMSO concentration). 50 μL of incubation mix containing test inhibitors was then added to the wells (in duplicate) and the plates were incubated for 20 minutes in a CO2 incubator at 37° C. After incubation, the reaction was stopped by keeping the plates on ice water mix for 2-3 minutes and then the incubation mix was aspirated completely from the wells. The wells were washed two times with 250 μL of chilled unlabeled 1 mM taurocholic acid dissolved in HEPES (Gibco 15630080)-buffered (10 mM) HBSS (Gibco 14175079) (pH 7.4). The plates were tapped against a paper towel after every wash to ensure maximum removal of blocking buffer.
# 100 μL of MicroScint-20 (PerkinElmer 6013621) was added to the wells and kept overnight at room temperature before reading the plates in TopCount NXT™ Microplate Scintillation and Luminescence Counter from PerkinElmer under 3H Test protocol (set at 120 seconds reading time per well, with normal plate orientation).
# Preparation of Test Compound Dilutions
# All test compounds were provided in powder form at room temperature. 10 mM DMSO stocks of the test compounds were prepared, aliquoted and stored at −20° C. From the 10 mM DMSO stock of the compounds, a 3-fold serial dilution in DMSO was prepared to get a total of 10 dilutions of the test compounds. 0.5 μL of this dilution in DMSO was added to 250 μL of FBS-free basal media containing 3H-taurocholic acid and cold taurocholic acid to prepare the incubation mixture.
# [1] = Bidirectional permeability assay (Caco-2 cells); type: in vitro ADME; conditions: human, pH 7.4, Caco-2, absorptive direction (A2B)
# Method: Bidirectional Permeability Assay (Caco-2 Cells)
# Caco-2 cells (Evotec) were seeded at a density of 70,000 cells/well in Millicell® 24-well cell culture insert plates and maintained in an incubator (37° C., 5% CO2, 95% RH) for 21 days with media change on alternate days.
# Stock solutions (10 mM) of the test compounds, atenolol (low permeability marker), propranolol (high permeability marker) and digoxin (substrate for P-gp transport pathway) were prepared in dimethylsulfoxide (DMSO). An intermediate stock solution (1 mM) was prepared by diluting 10 μL of 10 mM master stock solution with 90 μL of neat DMSO. A working stock solution (10 μM) was prepared by diluting 50 μL of 1 mM with 4950 μL of FaSSIF buffer. […]
# On the day of assay, Caco-2 monolayers were washed twice with transport buffer (HBSS, pH 7.4) and pre-incubated for 30 min (37° C., 5% CO2, 95% RH) in an incubator. The electrical resistance of the monolayers was measured with a Millicell®-ERS system. […]
# Samples were vortexed and centrifuged at 4000 rpm for 10 minutes. […] The concentration of compounds in the samples was analyzed by liquid chromatography tandem mass spectrometry (LC-MS/MS) method using discovery grade bio-analytical method, as applicable.
# The mean apparent permeability (Papp, ×10^−6 cm/sec) of the test compounds, atenolol, propranolol and digoxin were calculated as follows: […]
compound,measurement,setting,value
"CCCCC1(C)CN(c2ccc(F)cc2)c2cc(SC)c(OCC(O)C(=O)O)cc2S(=O)(=O)C1 (single isomer, unassigned) [1, diastereomer 1]",IC50,Human LBAT,1640 nM
same,"Papp A→B at 120 min, 10 µM",[1],2.2 ×10⁻⁶ cm/s
